Results from patent US20230187019A1, “METHOD FOR DETERMINING A DRUG COMBINATION VIA A BLOCKING MODEL OF A MULTI-SITE-TARGETED PROTEIN AND APPLICATIONS THEREOF” (National Tsing Hua University, priority 2021, published 2023).
“Also recorded” adds a separate entry of the source. Read-outs that look alike come from different tables or passages of the source.

Experiments:
shCtrl/HCT116 = test: Cell viability assay on shCtrl/HCT116 (control strain); format: cell-based, human; details: for shCtrl/HCT116 Cell Viability: remaining viability; for viability at 20 µM: Homo sapiens
shATG4B/HCT116 = test: Cell viability assay on shATG4B/HCT116 (ATG4B silencing strain); format: cell-based, human; details: for difference of cell viability inhibition between shATG4B/HCT116 (S strain) and shCtrl/HCT116 (C strain): Student's t-test, p-value <0.05; for shATG4B/HCT116 Cell Viability: remaining viability; for viability at 20 µM: Homo sapiens
AsPC-1 = test: Cell viability assay (MTT) on AsPC-1; details: for inhibition of cell viability, significance: 20 μM, AsPC-1, p-value <0.05; for AsPC-1 Cell Viability: remaining viability, 20 μM drug, normalized by blank control, three repeats; for viability at 20 µM: Homo sapiens, ASPC1, read-out: AsPC-1 Cell Viability, remaining viability, 20 μM drug, normalized by blank control, three repeats
Protocol: The cell viability was measured using the MTT assay or CellTiter-Glo Luminescent Cell Viability Assay. For MTT assay, mouse AK4.4 (1,000 cells/well) and human AsPC-1 (1,500 cells/well) cells were seeded in 96-well plates and cultured in serum-free medium (SFM) containing indicated concentrations of drugs for 48 hours. To measure the cell viability, 15 μL MTT (3-(4,5-dimethylthiazol-2-yl)-2,5-diphenyltetrazolium bromide, 5 mg/mL in PBS) was added in each well and kept at 37° C. for three hours. The precipitated crystals were then dissolved in 50 μL DMSO, and the absorbance at 570 nm was measured by Multiskan GO Microplate Spectrophotometer (Thermo Scientific, USA) to estimate the cell survival rate. To quantify the drug combination effect, the combination index was calculated when the cell viability was reduced by 50% using the following Equation (1):

HCT116 = test: Cell viability assay on HCT116; format: cell-based, human; details: for HCT116 Cell Viability: remaining viability; for viability at 20 µM: Homo sapiens
[1] = 20 μM drug, normalized by blank control, three repeats
[2] = HCT-116, remaining viability, 20 μM drug, C strain, read-out: shCtrl/HCT116 Cell Viability
[3] = HCT-116, remaining viability, 20 μM drug, S strain, read-out: shATG4B/HCT116 Cell Viability
[4] = HCT-116, remaining viability, 20 μM drug, normalized by blank control, three repeats, read-out: HCT116 Cell Viability

SMILES | inhibition of cell viability, significance (AsPC-1) | viability at 20 µM (shCtrl/HCT116; [2]) [%] | viability at 20 µM (shATG4B/HCT116; [3]) [%] | viability at 20 µM (AsPC-1) [%] | viability at 20 µM (HCT116; [4]) [%] | also measured
CC[C@@]1(O)C[C@H](O[C@H]2C[C@H](N(C)C)[C@H](O[C@H]3C[C@H](O)[C@H](O[C@H]4CCC(=O)[C@H](C)O4)[C@H](C)O3)[C@H](C)O2)c2c(cc3c(c2O)C(=O)c2c(O)cccc2C3=O)[C@H]1C(=O)OC [Aclacinomycin A] | statistically significant |  |  |  |  | shCtrl/HCT116 Cell Viability (shCtrl/HCT116; 20 μM drug, C strain): 27.7 ± 1.2%; shCtrl/HCT116 Cell Viability (shCtrl/HCT116; 20 μM drug, C strain, listed as aclacinomycin A): 28%; difference of cell viability inhibition between shATG4B/HCT116 (S strain) and shCtrl/HCT116 (C strain) (shATG4B/HCT116): statistically significant; also recorded: significant differences; shATG4B/HCT116 Cell Viability (shATG4B/HCT116; 20 μM drug, S strain): 38.4 ± 1.3%; shATG4B/HCT116 Cell Viability (shATG4B/HCT116; 20 μM drug, S strain, listed as aclacinomycin A): 38%; AsPC-1 Cell Viability (AsPC-1): 48.3 ± 4.6%; AsPC-1 Cell Viability (AsPC-1; listed as aclacinomycin A): 48%; HCT116 Cell Viability (HCT116; [1]): 27.9 ± 1.3%; HCT116 Cell Viability (HCT116; 20 μM drug, normalized by blank control, three repeats, listed as aclacinomycin A): 28%
Cc1ccc(C(=O)Nc2ccc(S(=O)(=O)O)c3cc(S(=O)(=O)O)cc(S(=O)(=O)O)c23)cc1NC(=O)c1cccc(NC(=O)Nc2cccc(C(=O)Nc3cc(C(=O)Nc4ccc(S(=O)(=O)O)c5cc(S(=O)(=O)O)cc(S(=O)(=O)O)c45)ccc3C)c2)c1 [Suramin] |  | 104 ± 4.4 | 98.3 ± 0.7 | 107 ± 6.5 | 100 ± 2.3 | 
CCC(C)n1ncn(-c2ccc(N3CCN(c4ccc(OCC5COC(Cn6cncn6)(c6ccc(Cl)cc6Cl)O5)cc4)CC3)cc2)c1=O (stereo not drawn) [Itraconazole] |  | 84.1 ± 1.9 | 91.3 ± 2.3 | 93.6 ± 6.3 | 82.6 ± 2.1 | 
COC(=O)N[C@H](C(=O)N1CCC[C@H]1c1nc(-c2ccc(-c3ccc(-c4c[nH]c([C@@H]5CCCN5C(=O)[C@@H](NC(=O)OC)C(C)C)n4)cc3)cc2)c[nH]1)C(C)C [Daclatasvir] |  | 58.8 ± 2.6 | 69.4 ± 3.7 | 71.1 ± 4.2 | 62.7 ± 0.3 | 
COc1ccc2c(c1)C(=O)N(CCc1ccc(S(=O)(=O)NC(=O)NC3CCCCC3)cc1)C(=O)C2(C)C [Gliquidone] |  | 88.4 ± 7.3 | 89.6 ± 0.6 | 92.4 ± 5.3 | 87 ± 1.6 | 
Cc1cc(-c2ccc(/N=N/c3ccc4c(S(=O)(=O)O)cc(S(=O)(=O)O)c(N)c4c3O)c(C)c2)ccc1/N=N/c1ccc2c(S(=O)(=O)O)cc(S(=O)(=O)O)c(N)c2c1O [Evans Blue] | statistically significant | 35 | 34 | 34 | 35 | shCtrl/HCT116 Cell Viability (shCtrl/HCT116; 20 μM drug, C strain): 34.9 ± 0.3%; shATG4B/HCT116 Cell Viability (shATG4B/HCT116; 20 μM drug, S strain): 34.5 ± 1.7%; AsPC-1 Cell Viability (AsPC-1): 33.6 ± 1.2%; HCT116 Cell Viability (HCT116; [1]): 34.8 ± 1.3%
C[C@@H]1CCO[C@H]2Cn3cc(C(=O)NCc4ccc(F)cc4F)c(=O)c(O)c3C(=O)N12 [Dolutegravir] |  | 85.5 ± 2.9 | 89.4 ± 2.5 | 106 ± 5.3 | 88 ± 4 | difference of cell viability inhibition between shATG4B/HCT116 (S strain) and shCtrl/HCT116 (C strain) (shATG4B/HCT116): statistically significant; also recorded: significant differences
CO[C@H]1C[C@@H]2CC[C@@H](C)[C@@](O)(O2)C(=O)C(=O)N2CCCC[C@H]2C(=O)O[C@H]([C@H](C)C[C@@H]2CC[C@@H](OC(=O)C(C)(CO)CO)[C@H](OC)C2)CC(=O)[C@H](C)/C=C(\C)[C@@H](O)[C@@H](OC)C(=O)[C@H](C)C[C@H](C)/C=C/C=C/C=C/1C [Temsirolimus] | statistically significant | 50 | 60 | 69 ± 4.2 | 52.1 ± 0.9 | shCtrl/HCT116 Cell Viability (shCtrl/HCT116; 20 μM drug, C strain): 49.5 ± 3.5%; difference of cell viability inhibition between shATG4B/HCT116 (S strain) and shCtrl/HCT116 (C strain) (shATG4B/HCT116; listed as emsirolimus): significant differences; difference of cell viability inhibition between shATG4B/HCT116 (S strain) and shCtrl/HCT116 (C strain) (shATG4B/HCT116; listed as temsirolimus): statistically significant; shATG4B/HCT116 Cell Viability (shATG4B/HCT116; 20 μM drug, S strain): 60.5 ± 1.9%
O=C(c1c2ccccc2cc2ccccc12)N1CCC(N2CCC[C@@H](C(=O)N3CCOCC3)C2)CC1 [CP-640186] |  |  |  |  |  | AsPC-1 Cell Viability (AsPC-1): 87.4 ± 4.7%; HCT116 Cell Viability (HCT116; [1]): 84.3 ± 2.0%
COC(=O)N[C@H](C(=O)N1CC2(CC2)C[C@H]1c1nc(-c2ccc3c(c2)C(F)(F)c2cc(-c4ccc5[nH]c([C@@H]6[C@H]7CC[C@H](C7)N6C(=O)[C@@H](NC(=O)OC)C(C)C)nc5c4)ccc2-3)c[nH]1)C(C)C [Ledipasvir] |  |  |  | 95.2 ± 2.9 |  | viability at 20 µM (shCtrl/HCT116; HCT-116, read-out: shCtrl/HCT116 Cell Viability, remaining viability, 20 μM drug, C strain): 72.5 ± 0.8%; viability at 20 µM (shATG4B/HCT116; HCT-116, read-out: shATG4B/HCT116 Cell Viability): 90.2 ± 1.8%; difference of cell viability inhibition between shATG4B/HCT116 (S strain) and shCtrl/HCT116 (C strain) (shATG4B/HCT116): statistically significant; also recorded: significant differences; viability at 20 µM (HCT116; HCT-116, read-out: HCT116 Cell Viability, remaining viability, 20 μM drug, normalized by blank control, three repeats): 82.9 ± 2.7%
Cc1cn(-c2cc(NC(=O)c3ccc(C)c(Nc4nccc(-c5cccnc5)n4)c3)cc(C(F)(F)F)c2)cn1 [Nilotinib] |  | 59.6 ± 1.7 | 68.2 ± 1.1 | 95.2 ± 3.4 | 61.4 ± 4.4 | 
CC(C)[C@@]1(NC(=O)[C@@H]2C[C@@H]3c4cccc5[nH]cc(c45)C[C@H]3N(C)C2)O[C@@]2(O)[C@@H]3CCCN3C(=O)[C@H](Cc3ccccc3)N2C1=O [Dihydroergocristine] | statistically significant |  |  | 77.1 ± 1.6 | 64 ± 3.7 | 
C#C[C@]1(O)CC[C@H]2[C@@H]3CCc4cc(O)ccc4[C@H]3CC[C@@]21C [Ethynyl Estradiol] | statistically significant | 49 | 70 | 80.1 ± 6.4 | 47 | shCtrl/HCT116 Cell Viability (shCtrl/HCT116; 20 μM drug, C strain): 48.7 ± 1.4%; difference of cell viability inhibition between shATG4B/HCT116 (S strain) and shCtrl/HCT116 (C strain) (shATG4B/HCT116): statistically significant; also recorded: significant differences; shATG4B/HCT116 Cell Viability (shATG4B/HCT116; 20 μM drug, S strain): 69.5 ± 3.3%; HCT116 Cell Viability (HCT116; [1]): 47.4 ± 1.8%
Cc1cnc(C(=O)N[C@H]2CCCCC/C=C\[C@@H]3C[C@@]3(C(=O)NS(=O)(=O)C3CC3)NC(=O)[C@@H]3C[C@@H](Oc4nc5ccccc5c5ccccc45)CN3C2=O)cn1 [Paritaprevir] |  | 75.4 ± 1.3 | 88 ± 1.4 | 98.7 ± 3 | 85.8 ± 3.3 | difference of cell viability inhibition between shATG4B/HCT116 (S strain) and shCtrl/HCT116 (C strain) (shATG4B/HCT116): statistically significant; also recorded: significant differences
Cc1ccccc1-c1cc(N2CCN(C)CC2)ncc1N(C)C(=O)C(C)(C)c1cc(C(F)(F)F)cc(C(F)(F)F)c1 [Netupitant] | statistically significant |  |  | 43 | 3 | AsPC-1 Cell Viability (AsPC-1): 42.9 ± 5.1%; HCT116 Cell Viability (HCT116; [1]): 2.8 ± 0.4%
CC(C)(C)NC(=O)[C@@H]1C[C@@H]2CCCC[C@@H]2CN1C[C@@H](O)[C@H](Cc1ccccc1)NC(=O)[C@H](CC(N)=O)NC(=O)c1ccc2ccccc2n1 [Saquinavir] |  | 63.5 ± 0.8 | 65.4 ± 1.2 | 84.6 ± 5.5 | 67 ± 1.2 | 
Cc1nc2c([nH]1)-c1ccccc1N(C(=O)c1ccc(NC(=O)c3ccccc3-c3ccccc3)cc1)CC2 [Conivaptan] |  | 69.5 ± 2.2 | 84 ± 2 | 99.3 ± 2.8 | 67.8 ± 0.5 | 
